# Calls of active or inactive are those of the source.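 How the source made its calls: active means maximal inhibition of USP17 at or above 30% in the confirmation dose-response, a value not among the printed readouts; inactive means the rest.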
# Target: Ubiquitin carboxyl-terminal hydrolase 17-like protein 5 (Homo sapiens) (UniProt A8MUK1)
# Test: ubiquitin-specific protease 17 DUB inhibitors, concentration-effect assay, cell-free, verification of initial screening actives (AID 1645864)
# Conditions: purified USP17, ubiquitin-rhodamine cleavage fluorescence, 3 h
# Sequence of Ubiquitin carboxyl-terminal hydrolase 17-like protein 5 (Homo sapiens) (A8MUK1 whole entry, looked up): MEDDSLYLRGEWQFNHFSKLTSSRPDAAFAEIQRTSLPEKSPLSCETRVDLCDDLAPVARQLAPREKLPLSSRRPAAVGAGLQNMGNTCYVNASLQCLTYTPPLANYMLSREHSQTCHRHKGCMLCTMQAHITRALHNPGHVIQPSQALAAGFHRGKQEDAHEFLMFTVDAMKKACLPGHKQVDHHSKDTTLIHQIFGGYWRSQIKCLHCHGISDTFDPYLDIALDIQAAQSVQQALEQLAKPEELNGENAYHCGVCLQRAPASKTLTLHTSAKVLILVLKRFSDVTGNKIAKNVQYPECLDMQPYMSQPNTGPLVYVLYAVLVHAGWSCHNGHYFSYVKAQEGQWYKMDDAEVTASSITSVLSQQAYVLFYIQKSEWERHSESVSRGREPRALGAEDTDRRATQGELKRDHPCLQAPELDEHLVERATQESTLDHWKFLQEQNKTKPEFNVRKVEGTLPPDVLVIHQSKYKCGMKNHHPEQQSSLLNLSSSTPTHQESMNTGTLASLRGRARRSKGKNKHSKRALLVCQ
row,SMILES,IC50
1,Cc1ccc(Cn2c(=O)c3ccccc3n3c(CCC(=O)N4CCN(c5ccccn5)CC4)nnc23)cc1,11.8 µM
2,CC(OC(=O)c1c2c(nc3ccccc13)CCCCC2)C(=O)Nc1ccc2ccccc2c1 (centres undefined),3.81 µM
3,O=C(NCc1ccc(-c2nc3cnccc3o2)cc1)c1ccccc1Br,38.6 µM
4,Cc1cccc(S(=O)(=O)N2CCc3nc4ccccc4n3CC2)c1,24.4 µM
5,O=C(Cn1c(=O)n(Cc2ccc3c(c2)OCO3)c(=O)c2ncccc21)c1ccc(Cl)cc1,33 µM
6,CCOc1ccccc1C(=O)Nc1ccc2c(c1)Sc1ncccc1C(=O)N2C,> 50 µM (inactive)
7,CC(=O)c1ccc(NC(=O)c2ccc(N3CCCCS3(=O)=O)cc2Cl)cc1,30.6 µM
8,Cn1c2ccccc2c(=O)c2c(=O)n(Cc3ccccc3)c(-c3ccccc3F)nc21,0.127 µM
9,O=C(Nc1ccc2c(c1)OCCO2)C1CCC(Cn2cnc3ccccc3c2=O)CC1 (centres undefined),> 50 µM (inactive)
10,CC1(C)Cc2c(sc3nc(Cc4ccccc4)nc(SCC(=O)Nc4ccccc4)c23)CO1,2.35 µM
11,COc1ccc(NC(=O)c2nnn(-c3cccc(C)c3)c2C)cc1,> 50 µM (inactive)
12,CC(C)c1cc(NCc2ccccc2)n2nc(-c3cccnc3)nc2n1,18.9 µM
13,CCc1ccc(Nc2cc(C(=O)NCCCOC(C)C)c3ccccc3n2)cc1,10.7 µM
14,O=C(c1ccsc1)N1CCC2(C1)Nc1cccnc1NC2=NC1CCCC1 (centres undefined),> 50 µM (inactive)
15,NC(=O)c1nnn(-c2ccc(NC(=O)c3ccc(F)c(F)c3)cc2)n1,10.6 µM
16,CCOC(=O)c1cc2c(ccn2C)n1Cc1cccc2ccccc12,> 50 µM (inactive)
17,Cc1cn[nH]c1C1COCCN1C(=O)c1ccc2ncccc2c1 (centres undefined),> 50 µM (inactive)
18,CC(=O)c1cc2c(=O)c3c(C(=O)O)c(O)c(O)cc3oc2c(C(C)=O)c1-c1coc2cc(O)c(O)c(C(=O)O)c2c1=O,0.49 µM
19,Cc1cc(C(=O)N2CCOC3(CC=CCN(CCc4ccccc4)C3=O)C2)n2nccc2n1 (centres undefined),> 50 µM (inactive)
20,Cc1ccc(-n2c(=O)c3ccccc3n(Cc3c(F)cccc3Cl)c2=O)cc1,3.57 µM
21,COc1cc(OC)cc(-c2nc(-c3cn(-c4cccc(F)c4)nn3)no2)c1,0.13 µM
22,O=C(CN1C=NC2=NS(=O)(=O)c3ccccc3N21)Nc1cc(F)ccc1F,33.4 µM
23,CC1=C[C@H]2N(c3ccc(C)cc31)[C@H](C(=O)c1cccs1)[C@@H](C(=O)c1ccc(F)cc1)[C@]21C(=O)Nc2ccccc21,> 50 µM (inactive)
24,COc1ccc(NC(=O)Cn2cc(C(=O)c3ccc(F)cc3)c(=O)c3cc(C)ccc32)cc1,24 µM
25,Cc1sc(NC(=O)CN2CCc3ccccc3C2)nc1-c1ccc2c(c1)CCN2C(=O)C1CCCCC1,> 50 µM (inactive)

row,SMILES,IC50
1,Cn1c(=O)[nH]c2nncnc2c1=O,7.23 µM
2,O=C(NCCc1ccccc1F)c1cn2cc(Cl)ccc2n1,28.7 µM
3,Cc1cc(NC(=O)Cn2c(=O)n(CCCCC(=O)NCc3ccco3)c(=O)c3ccccc32)ccc1Br,2.84 µM
4,COc1ccc(CNC(=O)c2[nH]nc3c2CCc2ccccc2-3)cc1,35.5 µM
5,O=c1c2cnc3nc(-c4cccnc4)nn3c2ccn1CCc1ccccc1,> 50 µM (inactive)
6,COc1ccc(-n2nnc3c(SCC(=O)Nc4cc(C)on4)ncnc32)cc1,> 50 µM (inactive)
7,CC1CC(=O)N(Cc2ccc([N+](=O)[O-])cc2)c2ccccc2S1 (centres undefined),> 50 µM (inactive)
8,O=c1[nH]c(C2CCN(S(=O)(=O)c3ccc(S(=O)(=O)NC4CCCC4)cc3)CC2)nc2c1nnn2Cc1cccc(Cl)c1,> 50 µM (inactive)
9,CC(C)CC[C@H]1O[C@@H](CC(=O)O)Cc2cc3c(c(O)c21)C(=O)c1sc(=O)n(C)c1C3=O,0.194 µM
10,O=C(COc1nsnc1N1CCOCC1)Nc1ccc(F)c(F)c1,> 50 µM (inactive)
11,COc1ccc(-n2ccc(=O)c(-c3nc(-c4ccccc4F)no3)n2)cc1OC,> 50 µM (inactive)
12,O=C(Nc1ccc(F)cc1F)NC1CCN(c2ccccc2)C1=O (centres undefined),18.3 µM
13,O=C(Nc1cccc(-c2nc3ccccc3[nH]2)c1)c1cc2ccccc2oc1=O,0.429 µM
14,COc1ccc(C2SCC(=O)Nc3c2c(=O)[nH]n3C2CCCCCC2)cc1 (centres undefined),33.5 µM
15,O=S1(=O)CCN(Cc2cccnc2)c2c(F)nc(N3CCOCC3)c(F)c21,> 50 µM (inactive)
16,O=C(Cn1cncc(C(=O)NC2CCCC2)c1=O)Nc1cccc(F)c1,19 µM
17,O=C(Nc1cccc(F)c1)c1ncoc1-c1ccco1,> 50 µM (inactive)
18,CCOCCCn1c(SCC(=O)Nc2ccccc2C(F)(F)F)nc2ccccc2c1=O,20.9 µM
19,O=C(NCc1cccnc1)c1cnn2c(C(F)(F)F)cc(-c3ccccc3)nc12,> 50 µM (inactive)
20,Fc1cccc(Cn2cc(-c3noc(-c4cccnc4)n3)nn2)c1,38.3 µM
21,O=C(CSc1ncnc2c1oc1ccccc12)NC1CCCC1,26 µM
22,COc1ccc(CCNC(=O)c2cc3ccccc3s2)cc1OC,> 50 µM (inactive)
23,COc1ccc(Cl)cc1N1C(=O)[C@H]2[C@@H](C1=O)[C@]1(C(=O)Nc3c(C)cc(C)cc31)N1CCC[C@@H]21,> 50 µM (inactive)
24,O=C(Cn1c(=O)c2sccc2n(Cc2ccc([N+](=O)[O-])cc2)c1=O)NCCc1ccccc1,26.8 µM
